IC50 and Activity data for 30 compounds are collected here from ChEMBL document CHEMBL4834422, “New Tyramine- and Aporphine-Type Alkamides with NO Release Inhibitory Activities from Piper puberulum” (J Nat Prod, 2021).

The IC50 is the point on the concentration scale where inhibition reaches its midpoint.

Data set [1] concerns BV-2. Kind of data set: Antineuroinflammatory activity against mouse BV2 cells assessed as inhibition of LPS-induced NO production incubated for 20 hrs by Griess assay. Format: functional, cell-based. To be noted: BV-2, 20 h.
For data set [2], the system named is BV-2. Kind of data set: Cytotoxicity against mouse BV2 cells assessed as reduction in cell viability at 1 to 25 uM after 24 hrs by MTT assay. Type of data set: cell-based. The following applies: bv-2, 24 h, dose 1-25 µM. (In general: Tetrazolium dyes change colour on reduction, which living cells bring about.)

Consider `COc1cc(/C=C/C(=O)NCCc2ccc(O)c(OC)c2)ccc1O`, for which the IC50 in the data set on BV-2 [1] is > 50 µM.
On to `COc1cc(/C=C\C(=O)NCCc2ccc(O)cc2)ccc1O`, for which the Activity result in the data set with BV-2 [2] is on record as “Non-Toxic”. In addition, the IC50 with BV-2 [1] was determined as 22 µM.
`COc1c(O)cc2c3c1-c1ccccc1[C@H](O)[C@H]3N(C(C)=O)CC2`: in the data set on BV-2 [1], the IC50 is > 50 µM.
In the case of `COc1cc(/C=C\C(=O)NCCc2ccc(O)cc2)cc(OC)c1O`, in the data set on BV-2 [1], the IC50 is > 50 µM.
Turning to `NC(=O)c1cn(CCc2ccc(O)cc2)c(=O)c2c(O)ccc(O)c12`, in the data set with BV-2 [1], the IC50 is > 50 µM.
Take `COc1ccc(O)c(C(=O)NCCc2ccc(O)cc2)c1`: in the data set with BV-2 [1], the IC50 is > 50 µM.
Regarding `COc1c2c3c(c4c1OCO4)-c1ccccc1[C@H](O)[C@H]3N(C(C)=O)CC2`, the Activity entry in the data set with BV-2 [2] was “Non-Toxic”. In addition, the IC50 in the data set on BV-2 [1] worked out at 16 µM.
As for `COc1cccc(/C=C/C(=O)N2CCCC2)c1`, the IC50 in the data set with BV-2 [1] was > 50 µM.
Still for that read-out and setting: to `COc1cc2c3c(c1OC)-c1ccccc1[C@H](O)[C@H]3N(C(C)=O)CC2` belongs > 50 µM.
With `COc1ccc(CCNC(=O)c2cc(O)ccc2O)cc1`, in the data set with BV-2 [2], the Activity entry is given as “Non-Toxic”. Also, the IC50 with BV-2 [1] amounted to 7 µM.
With `COc1c(O)c(OC)c2c3c1CCN(C(C)=O)[C@@H]3[C@@H](O)c1ccccc1-2`, the IC50 in the data set with BV-2 [1] was > 50 µM.
On to `COc1cc([C@H]2c3c(cc(OC)c(O)c3OC)C=C(C(=O)NCCc3ccc(O)cc3)[C@@H]2C(=O)NCCc2ccc(O)cc2)cc(OC)c1O`, for which the IC50 with BV-2 [1] is > 50 µM.
Turning to `COc1c2c3c(c(OC)c1OC)-c1ccccc1[C@H](O)[C@H]3N(C(C)=O)CC2`, the IC50 in the data set with BV-2 [1] was > 50 µM.
In the case of `O=CN1CCc2cc3c(c4c2[C@H]1[C@@H](O)c1ccccc1-4)OCO3`, the Activity result in the data set with BV-2 [2] is “Non-Toxic”. The IC50 with BV-2 [1] is 6.8 µM.
As for `CC(=O)N1CCc2cc3c(c4c2[C@H]1[C@@H](O)c1ccccc1-4)OCO3`, the Activity result with BV-2 [2] is “Non-Toxic”. In the data set with BV-2 [1], the IC50 came out at 9 µM.
For `COc1ccc(O)c(C(=O)NCCc2ccc(O)c(OC)c2)c1`, the Activity result in the data set with BV-2 [2] is on record as “Non-Toxic”. Moreover, the half-inhibitory concentration (IC50) in the data set on BV-2 [1] was determined as 26 µM.
Consider `COc1ccc(CCNC(=O)c2c(O)ccc(O)c2OC)cc1`, for which the Activity entry with BV-2 [2] is on record as “Non-Toxic”. The IC50 in the data set on BV-2 [1] stood at 1.4 µM.
For `COc1c(OC)c(OC)c2c3c(cc4ccccc42)NC(=O)c13`, in that order: “Non-Toxic” and 12 µM.
Take `COc1ccc(CCNC(=O)c2cc(OC)ccc2O)cc1`: in the data set on BV-2 [1], the IC50 was > 50 µM.
With `COc1ccc(OC)c(C(=O)NCCc2ccc(O)c(OC)c2)c1`, the IC50 with BV-2 [1] was > 50 µM.
On to `O=C(NCCc1ccc(O)cc1)c1ccc(O)c(O)c1`, for which the Activity entry in the data set with BV-2 [2] was “Non-Toxic”. Further, in the data set with BV-2 [1], the IC50 came to 21 µM.
Consider `COc1cc2c3c(cc4ccccc4c3c1OC)NC2=O` [CEPHARANONE B], for which, in the data set with BV-2 [1], the IC50 was > 50 µM.
As to `O=C1c2ccccc2-c2c3c(cc4ccnc1c24)OCO3` [LIRIODENINE], the Activity result in the data set with BV-2 [2] was “Non-Toxic”. Further, in the data set on BV-2 [1], the concentration for half-maximal inhibition (IC50) is 5 µM.
On to `CN(C)c1ccc(O)c2c1C[C@H]1C[C@H]3[C@H](N(C)C)C(O)=C(C(N)=O)C(=O)[C@@]3(O)C(O)=C1C2=O` [MINOCYCLINE], for which the IC50 in the data set with BV-2 [1] stood at 15 µM.
Turning to `O=C(/C=C/c1ccc(O)cc1)NCCc1ccc(O)cc1` [N-P-COUMAROYL TYRAMINE], the Activity entry with BV-2 [2] is reported as “Non-Toxic”. Moreover, the IC50 in the data set with BV-2 [1] came to 2.2 µM.
Turning to `COc1cc(/C=C/C(=O)NCCc2ccc(O)cc2)ccc1O` [N-TRANS-FERULOYL TYRAMINE], in the data set with BV-2 [2], the Activity result is “Non-Toxic”. The IC50 with BV-2 [1] turned out to be 18 µM.
For the compound `COc1cc2c3c(cc4ccccc4c3c1OC)NC(=O)C2=O` [NORCEPHARADIONE], the Activity result with BV-2 [2] is on record as “Non-Toxic”. In addition, in the data set on BV-2 [1], the IC50 was 37 µM.
Take `CCCCC/C=C/C=C/C(=O)NCC(C)C` [PELLITORIN]: in the data set on BV-2 [2], the Activity result is “Non-Toxic”. In addition, the IC50 in the data set with BV-2 [1] was found to be 45 µM.
Take `COc1cc2c3c(cc4ccccc4c3c1O)NC2=O` [PIPEROLACTAM A]: in the data set on BV-2 [1], the IC50 is > 50 µM.
In the case of `COc1cc(/C=C/C(=O)NCCc2ccc(O)cc2)cc(OC)c1O` [TRANS-N-SINAPOYLTYRAMINE], the IC50 in the data set on BV-2 [1] was > 50 µM.
